The molecules below were run against T1, androgen receptor (Homo sapiens, UniProt P10275) (assay: Androgen receptor binding test). Conditions: not given.
T1 sequence (P10275 1-920): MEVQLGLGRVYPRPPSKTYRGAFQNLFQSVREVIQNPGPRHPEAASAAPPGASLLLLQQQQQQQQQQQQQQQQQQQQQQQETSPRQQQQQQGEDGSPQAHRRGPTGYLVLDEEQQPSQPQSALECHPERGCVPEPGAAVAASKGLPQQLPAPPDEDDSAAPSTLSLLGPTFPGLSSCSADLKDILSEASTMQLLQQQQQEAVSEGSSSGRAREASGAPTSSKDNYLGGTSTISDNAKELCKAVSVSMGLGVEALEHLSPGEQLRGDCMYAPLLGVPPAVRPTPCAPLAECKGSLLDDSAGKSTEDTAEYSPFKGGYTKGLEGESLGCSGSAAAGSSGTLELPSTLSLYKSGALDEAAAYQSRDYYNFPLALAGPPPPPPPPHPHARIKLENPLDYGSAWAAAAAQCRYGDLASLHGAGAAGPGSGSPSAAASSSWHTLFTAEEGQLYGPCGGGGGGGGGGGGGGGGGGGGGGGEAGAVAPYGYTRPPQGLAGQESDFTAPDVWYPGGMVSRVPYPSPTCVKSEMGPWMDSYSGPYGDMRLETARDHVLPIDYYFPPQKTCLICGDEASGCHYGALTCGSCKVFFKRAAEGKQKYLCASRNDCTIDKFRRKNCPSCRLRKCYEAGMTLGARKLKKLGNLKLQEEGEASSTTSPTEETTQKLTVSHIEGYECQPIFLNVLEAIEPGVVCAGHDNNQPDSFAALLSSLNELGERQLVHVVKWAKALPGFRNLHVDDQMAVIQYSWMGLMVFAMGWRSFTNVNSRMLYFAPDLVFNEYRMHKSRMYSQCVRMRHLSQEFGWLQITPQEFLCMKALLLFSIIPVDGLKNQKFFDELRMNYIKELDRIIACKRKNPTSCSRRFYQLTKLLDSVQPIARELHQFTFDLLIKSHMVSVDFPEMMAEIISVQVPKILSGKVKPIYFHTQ
Parameters: expressed in transfected cells
Procedure: Using cytosol from progesterone receptor-expressing insect cells (Hi5), competitive binding to the progesterone receptor was determined from the ability to displace ^3H-progesterone as reference substance from the receptor.
3. Androgen Receptor Binding Test: […]
`CC[C@]12CC[C@H]3[C@@H]([C@H]4C[C@H]4C4=CC(=O)CC[C@@H]43)[C@@H]1[C@@H]1C[C@@H]1[C@@]21C=CC(=O)O1` [Example 1, 6β,7β;15β,16β-Bismethylene-17β-hydroxy-18-methyl-19-nor-17α-pregna-4,20(Z)-dien-3-one-21-carboxylic acid γ-lactone] gave an IC50 of 280 nM.
For `CC[C@]12CC[C@H]3[C@@H]([C@@H]4C[C@@H]4C4=CC(=O)CC[C@@H]43)[C@@H]1[C@@H]1C[C@@H]1[C@@]21C=CC(=O)O1` [Example 2, 6α,7α;15β,16β-Bismethylene-17β-hydroxy-18-methyl-19-nor-17α-pregna-4,20(Z)-dien-3-one-21-carboxylic acid γ-lactone], the IC50 was 450 nM.
`CC[C@]12CC[C@H]3[C@@H](C=CC4=CC(=O)CC[C@@H]43)[C@@H]1[C@@H]1C[C@@H]1[C@@]21C=CC(=O)O1` [Example 3, 17β-Hydroxy-18-methyl-15β,16β-methylene-19-nor-17α-pregna-4,6,20(Z)-trien-3-one-21-carboxylic acid γ-lactone] showed an IC50 of 1300 nM.
In the case of `CC[C@]12CC[C@H]3[C@H]([C@@H]1[C@@H]1C[C@@H]1[C@@]21C=CC(=O)O1)[C@H](C)CC1=CC(=O)CC[C@@H]13` [Example 4A, 7α,18-Bismethyl-17β-hydroxy-15β,16β-methylene-19-nor-17α-pregna-4,20(Z)-dien-3-one-21-carboxylic acid γ-lactone], the IC50 is reported as 60 nM.
Molecule `CC[C@@H]1CC2=CC(=O)CC[C@@H]2[C@H]2CC[C@@]3(CC)[C@@H]([C@@H]4C[C@@H]4[C@@]34C=CC(=O)O4)[C@H]12` [Example 5A, 17β-Hydroxy-7α-ethyl-18-methyl-15β,16β-methylene-19-nor-17α-pregna-4,20(Z)-dien-3-one-21-carboxylic acid γ-lactone] has an IC50 of 110 nM.
Work on `C=C[C@@H]1CC2=CC(=O)CC[C@@H]2[C@H]2CC[C@@]3(CC)[C@@H]([C@@H]4C[C@@H]4[C@@]34C=CC(=O)O4)[C@@H]21` [Example 6A, 17β-Hydroxy-7α-vinyl-18-methyl-15β,16β-methylene-19-nor-17α-pregna-4,20(Z)-dien-3-one-21-carboxylic acid γ-lactone] yielded an IC50 of 45 nM.
`CC[C@]12CC[C@H]3[C@H]([C@@H]1[C@@H]1C[C@@H]1[C@@]21C=CC(=O)O1)[C@H](C1CC1)CC1=CC(=O)CC[C@@H]13` [Example 7A, 17β-Hydroxy-7α-cyclopropyl-18-methyl-15β,16β-methylene-19-nor-17α-pregna-4,20(Z)-dien-3-one-21-carboxylic acid γ-lactone] was tested, and the IC50 was 170 nM.
In the case of `C[C@]12CC[C@H]3[C@@H](CCC4=CC(=O)CC[C@@H]43)[C@@H]1[C@H]1C[C@H]1[C@@]21C=CC(=O)O1` [Example 12, 17β-Hydroxy-15α,16α-methylene-19-nor-17α-pregna-4,20(Z)-dien-3-one-21-carboxylic acid γ-lactone], the IC50 is reported as 200 nM.
`C[C@@H]1CC2=CC(=O)CC[C@@H]2[C@H]2CC[C@@]3(C)[C@@H]([C@H]4C[C@H]4[C@@]34C=CC(=O)O4)[C@@H]21` [Example 14A, 17β-Hydroxy-7α-methyl-15α,16α-methylene-19-nor-17α-pregna-4,20(Z)-dien-3-one-21-carboxylic acid γ-lactone] gave an IC50 of 74 nM.
Molecule `CC[C@@H]1CC2=CC(=O)CC[C@@H]2[C@H]2CC[C@@]3(C)[C@@H]([C@H]4C[C@H]4[C@@]34C=CC(=O)O4)[C@H]12` [Example 15A, 17β-Hydroxy-7α-ethyl-15α,16α-methylene-19-nor-17α-pregna-4,20(Z)-dien-3-one-21-carboxylic acid γ-lactone] has an IC50 of 60 nM.
For `C=C[C@@H]1CC2=CC(=O)CC[C@@H]2[C@H]2CC[C@@]3(C)[C@@H]([C@H]4C[C@H]4[C@@]34C=CC(=O)O4)[C@@H]21` [Example 16A, 17β-Hydroxy-7α-vinyl-15α,16α-methylene-19-nor-17α-pregna-4;20(Z)-dien-3-one-21-carboxylic acid γ-lactone], the IC50 was 39 nM.
`C[C@]12CC[C@H]3[C@H]([C@@H]1[C@H]1C[C@H]1[C@@]21C=CC(=O)O1)[C@H](C1CC1)CC1=CC(=O)CC[C@@H]13` [Example 17A, 17β-Hydroxy-7α-cyclopropyl-15α,16α-methylene-19-nor-17α-pregna-4,20(Z)-dien-3-one-21-carboxylic acid γ-lactone] was tested, and the IC50 was 77 nM.
`C[C@]12CC[C@H]3[C@@H](CCC4=C(Cl)C(=O)CC[C@@H]43)[C@@H]1[C@H]1C[C@H]1[C@@]21C=CC(=O)O1` [Example 18, 4-Chloro-17β-hydroxy-15α,16α-methylene-19-nor-17α-pregna-4,20(Z)-dien-3-one-21-carboxylic acid γ-lactone] gave an IC50 of 140 nM.
`C[C@]12CC[C@H]3[C@@H](CCC4=CC(=O)CC[C@@H]43)[C@@H]1[C@@H]1C[C@@H]1[C@@]21C=CC(=O)O1` [Example 19, 17β-Hydroxy-15β,16β-methylene-19-nor-17α-pregna-4,20(Z)-dien-3-one-21-carboxylic acid γ-lactone] gave an IC50 of 52 nM.
`C[C@@H]1CC2=CC(=O)CC[C@@H]2[C@H]2CC[C@@]3(C)[C@@H]([C@@H]4C[C@@H]4[C@@]34C=CC(=O)O4)[C@@H]21` [Example 23A, 17β-Hydroxy-7α-methyl-15β,16β-methylene-19-nor-17α-pregna-4,20(2)-dien-3-one-21-carboxylic acid γ-lactone] was tested, and the IC50 was 81 nM.
With `CC[C@@H]1CC2=CC(=O)CC[C@@H]2[C@H]2CC[C@@]3(C)[C@@H]([C@@H]4C[C@@H]4[C@@]34C=CC(=O)O4)[C@H]12` [Example 24A, 7α-Ethyl-17β-hydroxy-15β,16β-methylene-19-nor-17α-pregna-4,20(Z)-dien-3-one-21-carboxylic acid γ-lactone] the IC50 was 160 nM.
In the case of `C=C[C@@H]1CC2=CC(=O)CC[C@@H]2[C@H]2CC[C@@]3(C)[C@@H]([C@@H]4C[C@@H]4[C@@]34C=CC(=O)O4)[C@@H]21` [Example 25A, 17β-Hydroxy-15β,16β-methylene-7α-vinyl-19-nor-17α-pregna-4,20(Z)-dien-3-one-21-carboxylic acid γ-lactone], the IC50 is reported as 37 nM.
`C[C@]12CC[C@H]3[C@@H](CCC4=C(Cl)C(=O)CC[C@@H]43)[C@@H]1[C@@H]1C[C@@H]1[C@@]21C=CC(=O)O1` [Example 27, 4-Chloro-17β-hydroxy-15β,16β-methylene-19-nor-17α-pregna-4,20(Z)-dien-3-one-21-carboxylic acid γ-lactone] gave an IC50 of 810 nM.

Same assay, conditions: reference substance 3H-testosterone, cytosol from AR-expressing insect cells (Hi5); read-out: Androgen receptor IC50
Molecule `CC[C@]12CC[C@H]3[C@@H]([C@H]4C[C@H]4C4=C(Cl)C(=O)CC[C@@H]43)[C@@H]1[C@@H]1C[C@@H]1[C@@]21C=CC(=O)O1` [Example 8, 6β,7β;15β,16β-Bismethylene-4-chloro-17β-hydroxy-18-methyl-19-nor-17α-pregna-4,20(Z)-dien-3-one-21-carboxylic acid γ-lactone] has an IC50 of 4300 nM.
`CC[C@]12CC[C@H]3[C@@H](C[C@@H](CO)C4=CC(=O)CC[C@@H]43)[C@@H]1[C@@H]1C[C@@H]1[C@@]21C=CC(=O)O1` [Example 10, 17β-Hydroxy-6β-hydroxymethylene-18-methyl-15β,16β-methylene-19-nor-17α-pregna-4,20(Z)-dien-3-one-21-carboxylic acid γ-lactone] was tested, and the IC50 was 1000 nM.
`C[C@]12CC[C@H]3[C@@H](C=CC4=CC(=O)CC[C@@H]43)[C@@H]1[C@H]1C[C@H]1[C@@]21C=CC(=O)O1` [Example 13, 17β-Hydroxy-15α,16α-methylene-19-nor-17α-pregna-4,6,20(Z)-trien-3-one-21-carboxylic acid γ-lactone] showed an IC50 of 5100 nM.
`C[C@]12CC[C@H]3[C@@H](C[C@@H](CO)C4=CC(=O)CC[C@@H]43)[C@@H]1[C@@H]1C[C@@H]1[C@@]21C=CC(=O)O1` [Example 21, 17β-Hydroxy-6β-hydroxymethylene-15β,16β-methylene-19-nor-17α-pregna-4,20(Z)-dien-3-one-21-carboxylic acid γ-lactone] showed an IC50 of 1000 nM.

From patent publication US20110015162A1, “15,16-Methylene-17-hydroxy-19-nor-21-carboxylic acid-steroid Y-lactone derivative, use thereof and medicinal products containing the derivative” (Bayer Schering Pharma Aktiengesellschaft, priority 2007, published 2011)
